Each block holds one molecule with its values, some of them ahead of it.
How the values were obtained:
[1] = below about 85°; cited from earlier work
[2] = Thermal stability of crystal forms upon heating (Table 4)
[3] = Stability and hygroscopicity of linezolid Form VI stored at 0-100% relative humidity; assay type: physicochemical
Description: The stability and hygroscopicity of linezolid Form VI was tested by storing it for 19 days at a relative humidity of between 0 and 100% at room temperature.

[4] = Stability of linezolid Form X stored at 0-100% relative humidity; assay type: physicochemical
Description: The stability of linezolid Form X was tested by storing it for 8 days at a relative humidity of between 0 and 100% at room temperature.

[5] = 19 days, room temperature, relative humidity 80%
[6] = 19 days, room temperature, relative humidity 100%
[7] = 8 days, room temperature, relative humidity 100%

Solvent content ([3]; 19 days, room temperature, relative humidity 0%): 0.4% | Solvent content ([3]; 19 days, room temperature, relative humidity 20%): 0.4% | Solvent content ([3]; 19 days, room temperature, relative humidity 40%): 0.4% | Solvent content ([3]; 19 days, room temperature, relative humidity 60%): 0.3% | Crystal Form [3, 5]: VI + Amorphous | Solvent content [3, 5]: 31.7% | Crystal Form [3, 6]: Amorphous | Solvent content [3, 6]: 53.2% | Solvent content ([3]; As is (before storage)): 0.9% | water content ([3]; As is (before storage)): 0.7% | Form conversion ([3]; at 80-100% RH): converts to Amorphous Linezolid | Stability and hygroscopicity ([3]; between 0-60% RH): stable and non-hygroscopic | Hygroscopicity ([3]; on high relative humidity): hygroscopic
Structure (SMILES): CC(=O)NC[C@H]1CN(c2ccc(N3CCOCC3)c(F)c2)C(=O)O1 [Form VI, (S)—N-[[3-[3-Fluoro-4-(4-morpholinyl)phenyl]-2-oxo-5-oxazo-lidinyl]methyl]-acetamide]

Solvent content ([4]; 8 days, room temperature, relative humidity 0%): 1.6% | Solvent content ([4]; 8 days, room temperature, relative humidity 20%): 1.5% | Solvent content ([4]; 8 days, room temperature, relative humidity 40%): 1.4% | Solvent content ([4]; 8 days, room temperature, relative humidity 60%): 2.0% | Solvent content ([4]; 8 days, room temperature, relative humidity 80%): 2.4% | Crystal Form [4, 7]: Form X + II | Solvent content [4, 7]: 0.7% | Solvent content ([4]; As is (before storage)): 1.9 (water content 1.9) % | water content ([4]; As is (before storage)): 1.9 (water content 1.9) % | Form conversion ([4]; at 100% RH): some of Form X converts to Form II | Stability ([4]; between 0-80% RH): stable | Crystal form after heating ([2]; heating temp. 60 °C, listed as X): Amorphous
Structure (SMILES): CC(=O)NC[C@H]1CN(c2ccc(N3CCOCC3)c(F)c2)C(=O)O1 [Form X, (S)—N-[[3-[3-Fluoro-4-(4-morpholinyl)phenyl]-2-oxo-5-oxazo-lidinyl]methyl]-acetamide]

Continued, molecule first:

Structure (SMILES): CC(=O)NC[C@H]1CN(c2ccc(N3CCOCC3)c(F)c2)C(=O)O1 [Form II]
Relative stability of the crystal form [1]: most stable form

Structure (SMILES): CC(=O)NC[C@H]1CN(c2ccc(N3CCOCC3)c(F)c2)C(=O)O1 [Form TIII, (S)—N-[[3-[3-Fluoro-4-(4-morpholinyl)phenyl]-2-oxo-5-oxazo-lidinyl]methyl]-acetamide]
Crystal form after heating ([2]; heating temp. 60 °C, listed as TIII): TIII | Crystal form after heating ([2]; heating temp. 130 °C): TIII

Structure (SMILES): CC(=O)NC[C@H]1CN(c2ccc(N3CCOCC3)c(F)c2)C(=O)O1 [Form V, (S)—N-[[3-[3-Fluoro-4-(4-morpholinyl)phenyl]-2-oxo-5-oxazo-lidinyl]methyl]-acetamide]
Thermal stability (transformation into other forms upon heating) ([2]; heating at about 60° C. to about 130° C.): thermally stable

Source: patent publication US20060111350A1, “Solid forms of linezolid and processes for preparation thereof” (priority 2004, published 2006)
